“And” between values parts separate entries of the source, which are not always exact repeats. Equal values may be shown once. Read-outs that look alike come from different tables or passages of the source.
Columns and labels:
RRMS patients [1] = experiment: GALA phase 3 trial cohort: response to glatiramer acetate, ARR by predicted responder status; type: in vivo, human
Protocol: As used herein, “GALA” is a phase 3 clinical trial entitled “A Study in Subjects With Relapsing-Remitting Multiple Sclerosis (RRMS) to Assess the Efficacy, Safety and Tolerability of Glatiramer Acetate (GA) Injection 40 mg Administered Three Times a Week Compared to Placebo (GALA).” The GALA trial has the ClinicalTrials.gov Identifier NCT01067521, and additional information about the trial can be found at clinicaltrials.gov/ct2/show/NCT01067521.
(§1) Response definitions were received from patients from two large glatiramer acetate clinical trial cohorts (GALA, FORTE) and patients were categorized as responder, non-responder, extreme-responder, or extreme non-responder according to the criteria set forth in Table 1.
(§2) When analysis was conducted for all genotyped patients of the Gala and FORTE cohorts, based on the predictive model (11 SNPs and 2 clinical variables), 34% of GALA, and 42% of FORTE-patients were classified as “predicted responders”.
(§3) Analysis was conducted for all genotyped patients of the Gala and FORTE cohorts, based on the 11 SNPs in the predictive model, but without including the clinical variables, and using a threshold at ˜30% of the population classified as “predicted responders” (FIG. 9).
(§4) When analysis was conducted for all genotyped patients of the Gala and FORTE cohorts, based on the […] and 2 clinical variables, 34% of GALA, and 42% of FORTE-patients were classified as “predicted responders”.

RRMS patients [2] = experiment: FORTE phase 3 trial cohort: response to glatiramer acetate, ARR by predicted responder status; type: in vivo, human; settings: for ARR reduced (improved) by: predicted responders vs predicted non-responders
Description: As used herein, “FORTE” is a phase 3 clinical trial entitled “Clinical Trial Comparing Treatment of Relapsing-Remitting Multiple Sclerosis (RR-MS) With Two Doses of Glatiramer Acetate (GA).” The FORTE trial has the ClinicalTrials.gov Identifier NCT00337779 and additional information, including study results can be found at clinicaltrials.gov/ct2/show/NCT00337779.
as §1, §2, §3, §4

RRMS patients [3] = experiment: Combined GALA and FORTE cohorts: patient responses by preliminary predictive model (11 SNPs and 2 clinical co-variates, threshold 0.71); type: in vivo, human; design: ARR reduced (improved) by: concentration or dose not given beside the values
Protocol: A predictive model was generated based on the 11 SNPs shown in tables 42, 43, 44a and 44b and the two Clinical co-variants shown in table 33.
Receiver Operating Characteristic (ROC) analysis was performed using the actual value (case or control) and predicted value for each sample from the multi-marker regression model (FIG. 1). For these preliminary analyses, two risk groups were defined using the predicted values from the multi-marker regression model. The predictive threshold value was set at 0.71 (termed “model 3”) based on a variety of factors after consultation with the Teva team and Teva MS clinical experts.
While 40% of patients were classified as “predicted non-responders” with an overall response rate of 34% (FIG. 5).

RRMS subjects = settings: cited from earlier work
RRMS patients [4] = settings: cited from earlier work
[5] = change in ARR <-1 and new T2 lesions = 0 and relapse free
[6] = change in ARR from previous 2 years <-1
[7] = change in ARR from previous 2 years ≧0
[8] = change in ARR ≧0 and new T2 lesions ≧1
[9] = predicted non-responders, 10 SNPs and 2 clinical variables
[10] = predicted non-responders, 11 SNPs without clinical variables
[11] = predicted non-responders, model of 11 SNPs and 2 clinical variables
[12] = predicted responders, 10 SNPs and 2 clinical variables, ± SEM
[13] = predicted responders, 11 SNPs without clinical variables, threshold ~30% of population, ± SEM
[14] = predicted responders, model of 11 SNPs and 2 clinical variables, ± SEM
[15] = predicted responders compared to predicted non-responders
[16] = predicted responders compared to the overall cohort
[17] = predicted responders compared to the overall patient cohort
[18] = predicted responders, ± standard error of the mean

For glatiramer acetate, the “Extreme Responders, % of cohort” value (RRMS patients [1]; [5]) was “(8.5%)”, the “Extreme Responders, number of samples” value (RRMS patients [1]; [5]) was 66 and the “Responders, % of cohort” value (RRMS patients [1]; [6]) was “(26%)”. The “Responders, number of samples” value (RRMS patients [1]; [6]) was 200, the “Non-Responders, % of cohort” value (RRMS patients [1]; [7]) was “(16%)” and the “Non-Responders, number of samples” value (RRMS patients [1]; [7]) was 123. For the same substance, the “Extreme Non-Responders, % of cohort” value (RRMS patients [1]; [8]) was “(10%)”, the “Extreme Non-Responders, number of samples” value (RRMS patients [1]; [8]) was 79 and the “annualized relapse rate (ARR)” value (RRMS patients [1]; [9]) was 0.374±0.038. For the same substance, the “annualized relapse rate (ARR)” value (RRMS patients [1]; [10]) was 0.382±0.037, the “annualized relapse rate (ARR)” value (RRMS patients [1]; [11]) was 0.374±0.038 and the “ARR reduced (improved) by” value (RRMS patients [1]; predicted responders vs placebo, 10 SNPs and 2 clinical variables) was 64%. The “ARR reduced (improved) by” value (RRMS patients [1]; predicted responders vs placebo, 11 SNPs and 2 clinical variables) was 64%, the “ARR reduced (improved) by” value (RRMS patients [1]; predicted responders vs placebo, 11 SNPs without clinical variables) was 71% and the “ARR reduced (improved) by” value (RRMS patients [1]; predicted responders vs predicted non-responders, 10 SNPs and 2 clinical variables) was 51%. For the same substance, the “ARR reduced (improved) by” value (RRMS patients [1]; predicted responders vs predicted non-responders, 11 SNPs and 2 clinical variables) was 51%, the “ARR reduced (improved) by” value (RRMS patients [1]; predicted responders vs predicted non-responders, 11 SNPs without clinical variables) was 62% and the “annualized relapse rate (ARR)” value (RRMS patients [1]; [12]) was 0.185±0.032. For the same substance, the “annualized relapse rate (ARR)” value (RRMS patients [1]; [13]) was 0.131±0.026, the “annualized relapse rate (ARR)” value (RRMS patients [1]; [14]) was 0.185±0.032 and the “Extreme Responders, % of cohort” value (RRMS patients [2]; [5]) was “(16%)”. For the same substance, the “Extreme Responders, number of samples” value (RRMS patients [2]; [5]) was 95, the “Responders, % of cohort” value (RRMS patients [2]; [6]) was “(36%)” and the “Responders, number of samples” value (RRMS patients [2]; [6]) was 221. The “Non-Responders, % of cohort” value (RRMS patients [2]; [7]) was “(11%)”, the “Non-Responders, number of samples” value (RRMS patients [2]; [7]) was 68 and the “Extreme Non-Responders, % of cohort” value (RRMS patients [2]; [8]) was “(6%)”. For the same substance, the “Extreme Non-Responders, number of samples” value (RRMS patients [2]; [8]) was 38, the “annualized relapse rate (ARR)” value (RRMS patients [2]; [9]) was 0.368±0.039 and the “annualized relapse rate (ARR)” value (RRMS patients [2]; [10]) was 0.290±0.03. For the same substance, the “annualized relapse rate (ARR)” value (RRMS patients [2]; [11]) was 0.368±0.039, the “ARR reduced (improved) by” value (RRMS patients [2]; 10 SNPs and 2 clinical variables) was 72% and the “ARR reduced (improved) by” value (RRMS patients [2]; 11 SNPs and 2 clinical variables) was 72%. For the same substance, the “ARR reduced (improved) by” value (RRMS patients [2]; 11 SNPs without clinical variables) was 50%, the “annualized relapse rate (ARR)” value (RRMS patients [2]; [12]) was 0.102±0.020 and the “annualized relapse rate (ARR)” value (RRMS patients [2]; [13]) was 0.145±0.029. For the same substance, the “annualized relapse rate (ARR)” value (RRMS patients [2]; [14]) was 0.102±0.020, the EDSS progression (RRMS patients [3]; overall cohort) was 0.057 and the response rate (RRMS patients [3]; overall cohort) was 68%. For the same substance, the “annualized relapse rate (ARR)” value (RRMS patients [3]; overall patient cohort) was 0.53±0.04, the “number of confirmed relapses (nrelapse)” value (RRMS patients [3]; overall patient cohort) was 0.46±0.03 and the EDSS progression (RRMS patients [3]; predicted non-responders) was 0.10±0.02. The “annualized relapse rate (ARR)” value (RRMS patients [3]; predicted non-responders) was 1.04±0.08, the “number of T1 enhancing lesions at month 12” value (RRMS patients [3]; predicted non-responders) was 1.70±0.38 and the “number of confirmed relapses (nrelapse)” value (RRMS patients [3]; predicted non-responders) was 0.88±0.06. For the same substance, the response rate (RRMS patients [3]; predicted non-responders, Gala and Forte cohorts) was 34%, the EDSS progression (RRMS patients [3]; predicted responders) was 0.03±0.01 and the “number of T1 enhancing lesions at month 12” value (RRMS patients [3]; predicted responders) was 0.91±0.18. The “ARR reduced (improved) by” value (RRMS patients [3]; [15]) was 80%, the improved response rate (RRMS patients [3]; [15]) was 2.7 fold and the “number of T1 enhancing lesions at month 12 reduced (improved) by” value (RRMS patients [3]; [15]) was 47%. For the same substance, the “number of confirmed relapses reduced (improved) by” value (RRMS patients [3]; [15]) was 78%, the “improvement in response rate” value (RRMS patients [3]; [16]) was 34% and the “reduced EDSS progression” value (RRMS patients [3]; [16]) was 49%. For the same substance, the “ARR reduced (improved) by” value (RRMS patients [3]; [17]) was 60%, the “number of confirmed relapses reduced (improved) by” value (RRMS patients [3]; [17]) was 58% and the “EDSS progression delayed (improved) by” value (RRMS patients [3]; predicted responders versus predicted non-responders) was 72%. For the same substance, the response rate (RRMS patients [3]; predicted responders, Gala and Forte cohorts) was 91.1% and 91%, the “annualized relapse rate (ARR)” value (RRMS patients [3]; [18]) was 0.21±0.03 and the “number of confirmed relapses (nrelapse)” value (RRMS patients [3]; [18]) was 0.19±0.03. The “relapse rate reduced by” value (RRMS subjects; GA 20 mg vs placebo, largest controlled study) was 32%, the tolerability (RRMS subjects; daily standard dose of 20 mg) was “generally well tolerated” and the “median cumulative number of Gd-enhancing lesions” value (RRMS subjects; over 9 months of treatment, 20 mg group) was 11 lesions. For the same substance, the relapse rate (RRMS subjects; under GA 20 mg, largest controlled study) was 1.34, the response rate (RRMS patients [4]; DRB1*1501 carriers) was 81.8% and the response rate (RRMS patients [4]; non-carriers of DRB1*1501) was 39.4%. For the same substance, the response rate (RRMS patients [4]; whole study population (N=83 RRMS)) was 50%.

Source: patent US9702007B2, “Genetic markers predictive of response to glatiramer acetate” (TEVA PHARMACEUTICALS INDUSTRIES, LTD., priority 2013, dated 2017)
